Results from patent US4668679A, “Aminoethyl-pyridine and pyrazine derivatives” (Riom Laboratories C.E.R.M., priority 1983, dated 1987).

System: Bronchospasm
Assay: antibronchoconstrictory activity, technique of Konzett and Rossler (histamine bronchospasm, i.v.)
Format: in vivo, tricoloured guinea pigs
Conditions: guinea pig; for Duration: duration of action
Procedure: The antibronchoconstrictory activity was investigated on tricoloured guinea pigs according to the technique of Konzett and Rossler. The animals are anaesthetised with ethylcarbamate and, after tracheotomy, are artifically respirated at constant volume; whereby the intratracheal pressure is recorded continuously. Histamine (5 μg.kg^-1, i.v.) is administered before and at various time-intervals after treatment with the substance to be studied. The activity of the product administered intravenously is evaluated by comparing the amplitudes of the bronchospasms before and after treatment and calculating the percentage variation and the duration of action.

[1] = Cavia porcellus, iv, dose 5 mg, histamine 5 μg/kg i.v.
[2] = dose 5 mg, histamine 5 μg/kg i.v.
[3] = Cavia porcellus, iv, dose 0.05 mg, histamine 5 μg/kg i.v.
[4] = dose 0.05 mg, histamine 5 μg/kg i.v.
[5] = Cavia porcellus, iv, dose 0.25 mg, histamine 5 μg/kg i.v.
[6] = dose 0.25 mg, histamine 5 μg/kg i.v.
[7] = Cavia porcellus, iv, dose 0.1 mg, histamine 5 μg/kg i.v.
[8] = dose 0.1 mg, histamine 5 μg/kg i.v.

COC(CN1CCCC1)c1ccc(C)nc1 (stereo not drawn) [Compound 1]
inhibition in vivo at 5 mg [1]: 56.5% | Duration [2]: > 60 min

COC(CN1CCN(c2ccc(F)cc2)CC1)c1ccc(C)nc1 (stereo not drawn) [Compound 2]
inhibition in vivo at 0.05 mg [3]: 85% | Duration [4]: > 120 min | antibronchoconstrictory activity (intensity and duration of action), in words (histamine bronchospasm): excellent activity

COC(CN1CCOCC1)c1ccc(C)nc1 (stereo not drawn) [Compound 3]
inhibition in vivo at 5 mg [1]: 50% | Duration [2]: > 15 min

COC(CN1CCN(c2ccccc2)CC1)c1ccc(C)nc1 (stereo not drawn) [Compound 6, 1-[2-Methoxy-2-(6-methyl-3-pyridyl)-ethyl]-4-phenyl-piperazine]
inhibition in vivo at 0.025 mg (Cavia porcellus, iv, dose 0.025 mg, histamine 5 μg/kg i.v.): 90% | ED50 (Cavia porcellus, iv, histamine bronchospasm): 1.9 µg/kg | Duration (dose 0.025 mg, histamine 5 μg/kg i.v.): > 120 min | antibronchoconstrictory activity (intensity and duration of action), in words (histamine bronchospasm): excellent activity

COc1ccccc1N1CCN(CC(OC)c2ccc(C)nc2)CC1 (stereo not drawn) [Compound 7, 1-[2-Methoxy-2-(6-methyl-3-pyridyl)-ethyl]-4-(2-methoxy-phenyl)-piperazine]
inhibition in vivo at 0.25 mg [5]: 97% | Duration [6]: > 60 min | antibronchoconstrictory activity (intensity and duration of action), in words (histamine bronchospasm): excellent activity

CCOc1ccccc1N1CCN(CC(OC)c2ccc(C)nc2)CC1 (stereo not drawn) [Compound 8]
inhibition in vivo at 0.1 mg [7]: 95% | Duration [8]: > 15 min | antibronchoconstrictory activity (intensity and duration of action), in words (histamine bronchospasm): excellent activity

COC(CN1CCN(c2ccccc2)CC1)c1cnc(C)cn1 (stereo not drawn) [Compound 9]
inhibition in vivo at 0.25 mg [5]: 98% | Duration [6]: 30 min

CCOC(CN1CCN(c2ccccc2)CC1)c1ccc(C)nc1 (stereo not drawn) [Compound 10]
inhibition in vivo at 1 mg (Cavia porcellus, iv, dose 1 mg, histamine 5 μg/kg i.v.): 100% | Duration (dose 1 mg, histamine 5 μg/kg i.v.): > 60 min

CCOC(CN1CCN(c2ccccc2OC)CC1)c1ccc(C)nc1 (stereo not drawn) [Compound 11]
inhibition in vivo at 0.25 mg [5]: 100% | Duration [6]: > 60 min

COC(CN1CCN(c2ccc(F)cc2)CC1)c1cnc(C)cn1 (stereo not drawn) [Compound 12]
inhibition in vivo at 0.5 mg (Cavia porcellus, iv, dose 0.5 mg, histamine 5 μg/kg i.v.): 91% | Duration (dose 0.5 mg, histamine 5 μg/kg i.v.): > 60 min

COC(CN1CCN(c2ccccc2)CC1)c1nccnc1C.O=C(O)/C=C/C(=O)O (stereo not drawn) [Compound 14, 1-[2-Methoxy-2-(3-methyl-2-pyrazinyl)-ethyl]-4-phenyl-piperazine fumarate salt]
inhibition in vivo at 5 mg [1]: 82% | Duration [2]: 45 min

COc1ccc(N2CCN(CC(OC)c3ccc(C)nc3)CC2)c(OC)c1 (stereo not drawn) [Compound 15]
inhibition in vivo at 0.05 mg [3]: 80% | Duration [4]: 60 min | antibronchoconstrictory activity (intensity and duration of action), in words (histamine bronchospasm): excellent activity

COC(CN1CCN(c2ccccc2C)CC1)c1ccc(C)nc1 (stereo not drawn) [Compound 16]
inhibition in vivo at 0.1 mg [7]: 79% | Duration [8]: 45 min | antibronchoconstrictory activity (intensity and duration of action), in words (histamine bronchospasm): excellent activity
